According to patent publication US6906057B1, “Methods for modulating FXR receptor activity” (Allergan, Inc., priority 1999, dated 2005):
Residue numbers refer to the chain shown, from its start.

What was measured:
FXR-RXRm heterodimer = target: T1, FXR-RXRm heterodimer (Rattus norvegicus, UniProt Q62735); experiment: EcRE-TK-Luc transactivation in CV-1 cells cotransfected with FXR and RXRm; format: cell-based; settings: for FXR transactivating activity: Example 3, FIG. 3, FXR-RXRm, 100 nM unless otherwise indicated, AGN 10 10 μM; for transactivation activity, cells cotransfected with FXR and RXRm: Example 5, FIG. 6
T1 construct: Full-length recombinant rat FXR and human RXR (or RXRm) cloned into the cloning site of plasmid pCMX; expressed in transfected cells; host or cells: CV-1 cells
T1 sequence (Q62735 1-469): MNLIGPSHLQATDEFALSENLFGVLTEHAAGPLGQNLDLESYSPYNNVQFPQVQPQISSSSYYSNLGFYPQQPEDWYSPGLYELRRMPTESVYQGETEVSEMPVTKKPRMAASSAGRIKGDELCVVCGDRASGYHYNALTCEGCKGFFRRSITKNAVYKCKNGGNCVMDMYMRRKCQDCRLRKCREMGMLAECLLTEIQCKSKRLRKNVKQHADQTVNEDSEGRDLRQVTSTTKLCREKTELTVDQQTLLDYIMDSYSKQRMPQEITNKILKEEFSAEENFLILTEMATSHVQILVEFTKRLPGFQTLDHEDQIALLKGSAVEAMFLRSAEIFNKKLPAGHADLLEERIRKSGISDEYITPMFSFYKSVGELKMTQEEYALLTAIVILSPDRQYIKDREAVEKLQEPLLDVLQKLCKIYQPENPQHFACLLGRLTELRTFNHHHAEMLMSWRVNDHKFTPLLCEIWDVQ
T1 sequence (P19793 1-462 D322P partner): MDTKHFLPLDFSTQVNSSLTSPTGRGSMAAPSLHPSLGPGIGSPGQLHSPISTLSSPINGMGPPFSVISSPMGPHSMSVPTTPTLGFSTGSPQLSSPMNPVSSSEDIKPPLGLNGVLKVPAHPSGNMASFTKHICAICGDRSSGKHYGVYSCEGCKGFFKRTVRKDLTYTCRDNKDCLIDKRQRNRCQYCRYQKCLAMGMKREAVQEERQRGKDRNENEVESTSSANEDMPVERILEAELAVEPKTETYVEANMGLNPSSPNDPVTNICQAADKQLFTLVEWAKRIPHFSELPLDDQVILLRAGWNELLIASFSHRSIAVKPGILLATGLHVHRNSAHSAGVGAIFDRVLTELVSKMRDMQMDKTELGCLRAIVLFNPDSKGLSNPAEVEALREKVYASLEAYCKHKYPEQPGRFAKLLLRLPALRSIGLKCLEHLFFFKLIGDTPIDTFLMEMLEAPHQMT
Source text: Because FXR is known to bind to its response element as a heterodimer with RXR, and because the heterodimer can be activated by ligands to RXR, a mutant RXRα protein (RXRm; also referred to as D322P in the Figures) was constructed containing a single point mutation (Asp322 to Pro) in the ligand binding domain of RXR. The use of FXR-RXRm heterodimers, permits unambiguous identification of modulators of FXR activity amongst test compounds.
(§1) Full-length recombinant rat FXR and human RXR (or RXRm) cloned into the cloning site of plasmid pCMX were cotransfected into CV-1 cells using the transient transfection method substantially as described above. Additionally, reporter plasmids were cotransfected with the expression plasmids as described above.
(§2) Luciferase reporter plasmids TK-Luc (described in Heyman et al., Cell 68:397 (1992), hereby incorporated by reference herein) were constructed by placing the firefly luciferase cDNA coding sequence in frame immediately downstream from the herpes virus thymidine kinase promoter (located at nucleotide residues −105 to +51) of the thymidine kinase nucleotide sequence). Six repeats of the EcRE response element, to which the DNA binding domain (DBD) of FXR binds, was also included upstream of the reporter gene. Further details are provided above.
(§3) AGN 10 has the structure: [drawing 3]
(§4) The cells were then lysed as described above, and luciferase activity was measured as an indication of the extent of heterodimer-induced FXR transactivation activity as described above Results are shown in FIG. 2.
CV-1 cells were cotransfected with mammalian expression vectors encoding full length FXR and RXRm, as well as with the luciferase reporter plasmid used in the last experiment. […] All compounds were dissolved in DMSO, except glycochenodeoxycholic acid, taurochenodeoxycholic acid, taurodeoxycholic acid and taurocholic acid, which were dissolved in phosphate buffered saline (PBS). Following exposure to the compounds, the cells were washed, lysed, and the luciferase activity measured as indicated above.
(§5) These compounds were assayed for FXR modulating activity using the transactivation assay described above. All compounds were dissolved in DMSO. As above, the reporter plasmid contained 6 copies of the ecdysone response element (EcRE) placed along with the herpes virus thymidine kinase promoter upstream of the firefly luciferase gene. The reporter plasmid was transfected into CV-1 cells, either a) alone, b) with an expression plasmid encoding full length FXR, c) with an expression plasmid encoding full length RXRα, d) with two expression plasmids encoding full length FXR and RXRα respectively, and e) with two expression plasmids encoding full length FXR and RXRm, respectively. Plasmid constructions, transfection, incubation with test compounds, and luciferase activity assays were performed as described in Example 1.

FXR-RXRα heterodimer = target: T2, FXR-RXRα heterodimer (UniProt P19793+Q62735); experiment: EcRE-TK-Luc transactivation in CV-1 cells cotransfected with FXR and RXR; format: cell-based, rat; settings: for luciferase activity response, cells cotransfected with FXR and RXRα: Example 5, FIG. 6; for FXR activity as stated for panel compounds: Example 5 panel description, JH III 50 μM
T2 construct: Full-length recombinant rat FXR and human RXR (or RXRm) cloned into the cloning site of plasmid pCMX; expressed in transfected cells; host or cells: CV-1 cells
T2 sequence (Q62735 1-469): T1 sequence (Q62735 1-469)
T2 sequence (P19793 1-462): T1 sequence (P19793 1-462 D322P partner) with P322D
Source text: as §1, §2, §3, §4
Transient cotransfection of full length rat FXR, human RXR and the luciferase reporter plasmid was performed as above. A set of cotransfectant CV-1 cells was incubated in 1, 2, 10, and 20 μM AGN 10. Separate sets of cotransformants were given 1, 10, 20, 100, and 200 μM of either CDCA, DCA or LCA. All compounds were dissolved in DMSO. All transformant cells were permitted to incubate for approximately 44 hours with the indicated compound, then the amount of transactivation activity was measured using the luciferase assay, as indicated above.
as §5

FXR-RXRα complex = target: T3, FXR-RXRα complex (UniProt P19793+Q62735); settings: Forman et al., Cell 81:687-693 (1995); cited from earlier work
T3 sequence (Q62735 1-469): T1 sequence (Q62735 1-469)
T3 sequence (P19793 1-462): T1 sequence (P19793 1-462 D322P partner) with P322D

FXR or RXR alone = settings: Forman et al., Cell 81:687-693 (1995); cited from earlier work
[1] = Example 2, FIG. 2, ~44 hours, AGN 10 5-10 μM, LG 268 100 nM, bovine bile extract

C[C@H](CCC(=O)O)[C@H]1CC[C@H]2[C@@H]3C(=O)C[C@@H]4CC(=O)CC[C@]4(C)[C@H]3CC[C@]12C [3-7-diketolithocholic acid, 3,7-diketolithocholic acid]
FXR transactivating activity (FXR-RXRm heterodimer; ~44 hours): measurable FXR transactivating activity

C[C@H](CCC(=O)O)[C@H]1CC[C@H]2[C@@H]3C(=O)C[C@@H]4C[C@H](O)CC[C@]4(C)[C@H]3CC[C@]12C [7-ketolithocholic acid]
FXR transactivating activity (FXR-RXRm heterodimer; ~44 hours): measurable FXR transactivating activity

CC1(C)CCC(C)(C)c2cc(/C(=C/c3ccc(C(=O)C(=O)O)cc3)[Si](C)(C)C)ccc21 [AGN 10]
FXR-mediated transactivation (luciferase activity), FXR-RXR cotransfected cells (FXR-RXRα heterodimer; [1]): almost as much activity | concentration at which FXR agonist activity is at a maximum (FXR-RXRα heterodimer; Example 4, FIG. 4, rat FXR, human RXR, ~44 hours): 10 µM | luciferase activity response, cells cotransfected with FXR and RXRα (FXR-RXRα heterodimer): highest activity response | FXR-mediated transactivation (luciferase activity), FXR-RXRm cotransfected cells (FXR-RXRm heterodimer; [1]): almost as much activity | FXR transactivating activity (FXR-RXRm heterodimer; ~44 hours): measurable FXR transactivating activity | transactivation activity, cells cotransfected with FXR and RXRm (FXR-RXRm heterodimer): significant levels of transctivation activity | FXR ligand classification from the data (FXR-RXRm heterodimer; Example 5, conclusion): FXR agonists

CC1(C)CCC(C)(C)c2cc(C(=O)Nc3ccc(C(=O)O)cc3)ccc21 [Am 580]
FXR activity as stated for panel compounds (FXR-RXRα heterodimer): does not have FXR activity

C/C(=C\c1ccc(C(=O)O)cc1)c1ccc2c(c1)C(C)(C)CCC2(C)C [TTNPB]
luciferase activity response, cells cotransfected with FXR and RXRα (FXR-RXRα heterodimer): highest activity response | FXR activity as stated for panel compounds (FXR-RXRα heterodimer): has FXR activity | transactivation activity, cells cotransfected with FXR and RXRm (FXR-RXRm heterodimer): significant levels of transctivation activity

CC(C)CCC[C@@H](C)[C@H]1CC[C@H]2[C@@H]3CC=C4C[C@@H](O)CC[C@]4(C)[C@H]3CC[C@]12C [cholesterol]
activation of the FXR-RXR complex (FXR-RXRα complex): did not activate

CC(C)=CCCC(C)=CCCC(C)=CC=O [farnesal]
activation of the FXR-RXR complex (FXR-RXRα complex): somewhat less strongly

CC(C)=CCCC(C)=CCCC(C)=CC(=O)O [farnesoic acid]
activation of the FXR-RXR complex (FXR-RXRα complex): somewhat less strongly

CC(C)=CCC/C(C)=C/CO [geraniol]
activation of the FXR-RXR complex (FXR-RXRα complex): did not activate

CC(C)=CCC/C(C)=C/CC/C(C)=C/CC/C(C)=C/CO [geranylgeraniol]
activation of the FXR-RXR complex (FXR-RXRα complex): somewhat less strongly

CC(C)=CCC/C(C)=C/CC/C(C)=C/CC/C=C(\C)CC/C=C(\C)CCC=C(C)C [squalene]
activation of the FXR-RXR complex (FXR-RXRα complex): did not activate

juvenile hormone III
FXR activity as stated for panel compounds (FXR-RXRα heterodimer): an FXR agonist | activation of FXR or RXR alone (FXR or RXR alone): does not activate | activation of the FXR-RXR complex (FXR-RXRα complex): activated
